# Measured values from publication PMC10762035, “Molecular basis of human trace amine-associated receptor 1 activation” (Nature Communications, 2024).
# Positions count from the first letter of the chain named. Where “and” joins values, the source holds several entries; their conditions need not be identical. Identical values can stand only once.
# Legend:
# Assay type in all cases: cell-based
# [1] = target: T1, hTA1 T271A (Homo sapiens, UniProt Q96RJ0, T271A); assay: GloSensor cAMP accumulation assay, T271A mutant
# T1 construct: expressed in transfected cells; host or cells: HEK293T
# T1 sequence (Q96RJ0 1-339 T271A): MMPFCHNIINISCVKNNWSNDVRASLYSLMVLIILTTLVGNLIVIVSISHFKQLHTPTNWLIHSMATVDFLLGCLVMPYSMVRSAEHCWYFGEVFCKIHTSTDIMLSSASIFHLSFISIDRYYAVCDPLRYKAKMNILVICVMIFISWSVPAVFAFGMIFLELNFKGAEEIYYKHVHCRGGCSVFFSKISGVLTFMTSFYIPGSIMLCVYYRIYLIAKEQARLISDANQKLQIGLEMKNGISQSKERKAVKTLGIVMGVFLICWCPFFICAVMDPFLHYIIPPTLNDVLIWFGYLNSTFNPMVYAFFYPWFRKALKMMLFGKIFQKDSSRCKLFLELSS
# [2] = target: T2, hTA1 I290Y (Homo sapiens, UniProt Q96RJ0, I290Y); assay: GloSensor cAMP accumulation assay, I290Y mutant; conditions: for cAMP accumulation response, normalized (concentration-response source data, single replicate values): hTA1 I290Y (N=3), log[Compound];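 on cAMP accumulation response, normalized (concentration-response source data, single replicate values): normalized to the maximum response of β-PEA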
# T2 construct: expressed in transfected cells; host or cells: HEK293T
# T2 sequence (Q96RJ0 1-339 I290Y): T1 sequence (Q96RJ0 1-339 T271A) with A271T, I290Y
# [3] = target: T3, hTA1 S107C (Homo sapiens, UniProt Q96RJ0, S107C); assay: GloSensor cAMP accumulation assay, S107C mutant;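 further: cells transiently co-expressing receptor and GloSensor biosensor, luminescence read after 30 min agonist exposure at room temperature, concentration-response fitted by nonlinear regression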
# T3 construct: expressed in transfected cells; host or cells: HEK293T
# T3 sequence (Q96RJ0 1-339 S107C): T1 sequence (Q96RJ0 1-339 T271A) with S107C, A271T
# [4] = target: T4, hTA1 F195T (Homo sapiens, UniProt Q96RJ0, F195T); assay: GloSensor cAMP accumulation assay, F195T mutant;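 further: cells transiently co-expressing HA-FLAG-tagged hTA1 and the GloSensor cAMP biosensor, luminescence read 30 min after agonist addition at room temperature, concentration-response fitted by nonlinear regression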
# T4 construct: expressed in transfected cells; host or cells: HEK293T
# T4 sequence (Q96RJ0 1-339 F195T): T1 sequence (Q96RJ0 1-339 T271A) with F195T, A271T
# [5] = target: T5, hTA1 C88S (Homo sapiens, UniProt Q96RJ0, C88S); assay: GloSensor cAMP accumulation assay, C88S mutant; conditions: C88S
# T5 construct: expressed in transfected cells; host or cells: HEK293T
# T5 sequence (Q96RJ0 1-339 C88S): T1 sequence (Q96RJ0 1-339 T271A) with C88S, A271T
structure (smiles),measurement,setting,value
Cc1c(F)cccc1[C@H]1COC(N)=N1 [Ro5263397],"ΔpEC50 values (each mutant value - WT average), Mean","[1]; T271A mutant minus WT average, Figure 5B",-0.5707 and -0.4899
same,"pEC50 values, Mean","[1]; T271A mutant, Figure 5B, each row one independent experiment (3 replicates)",8.26 and 8.341
same,"Emax values, Mean","[1]; T271A mutant, Figure 5B, β-PEA = 100, each row one independent experiment (3 replicates)",76.005 and 87.3949
same,Span ± SEM (Emax normalized to β-PEA),"[1]; T271A, n=2",81.70 ± 5.69
same,pEC50 ± SEM,"[1]; T271A, n=2",8.3 ± 0.07
same,EC50,"[1]; T271A, n=2, read-out: EC50",5 nM
same,Span ± SEM (Emax normalized to β-PEA),[2]; I290Y,61.58 ± 3.99
same,pEC50 ± SEM,[2]; I290Y,9.16 ± 0.18
same,EC50,"[2]; I290Y, read-out: EC50",0.69 nM and 0.7 nM
same,"Emax values, Mean","[2]; I290Y, single experiments (3 replicates each), β-PEA = 100",59.7265 and 69.2263 and 55.7889
same,"cAMP accumulation response, normalized (concentration-response source data, single replicate values)",[2]; M = -5,77.8381 and 104.308 and 85.2251 and 91.2333 and 75.1101 and 85.0039 and 68.1063 and 86.1539 and 148.193
same,"cAMP accumulation response, normalized (concentration-response source data, single replicate values)",[2]; M = -5.522,49.5212 and 78.7614 and 62.4485 and 78.7745 and 74.7437 and 50.1924 and 55.6986 and 43.2908 and 39.9069
same,"cAMP accumulation response, normalized (concentration-response source data, single replicate values)",[2]; M = -6,40.5953 and 87.0718 and 61.2173 and 64.117 and 63.3841 and 61.5519 and 45.5468 (2×) and 50.0587
same,"cAMP accumulation response, normalized (concentration-response source data, single replicate values)",[2]; M = -6.522,56.6004 and 53.5225 and 48.9057 and 84.6375 and 52.7574 and 75.4765 and 66.9783 and 45.5468 and 38.7789
same,"cAMP accumulation response, normalized (concentration-response source data, single replicate values)",[2]; M = -7,35.3628 and 69.2199 and 41.5187 and 56.0554 and 64.117 and 50.9252 and 46.6748 and 39.9069 and 45.5468
same,"cAMP accumulation response, normalized (concentration-response source data, single replicate values)",[2]; M = -7.522,46.4433 and 76.2991 and 50.1368 and 60.819 and 63.0177 and 60.4526 and 39.9069 and 45.5468 and 47.8027
same,"cAMP accumulation response, normalized (concentration-response source data, single replicate values)",[2]; M = -8,61.8329 and 86.4562 and 67.9887 and 68.1478 and 70.3464 and 73.6443 and 36.523 and 37.651 and 32.0111
same,"cAMP accumulation response, normalized (concentration-response source data, single replicate values)",[2]; M = -8.522,54.7537 and 78.4536 and 76.2991 and 69.98 and 71.4457 and 63.7505 and 30.8831 and 33.1391 (2×)
same,"cAMP accumulation response, normalized (concentration-response source data, single replicate values)",[2]; M = -9,45.2122 and 78.7614 and 61.8329 and 45.0622 and 50.1924 and 56.0554 and 15.0915 and 19.6034 and 12.8355
same,"cAMP accumulation response, normalized (concentration-response source data, single replicate values)",[2]; M = -9.522,19.3577 and 32.5927 and 26.1291 and 49.4595 and 39.5657 and 25.2746 and 3.812 (2×) and 8.324
same,"cAMP accumulation response, normalized (concentration-response source data, single replicate values)",[2]; M = -10,27.9758 and 29.5148 and 27.3602 and 7.319 and 9.884 and 17.5794 and 0.4278 and 2.684 and 7.196
same,"cAMP accumulation response, normalized (concentration-response source data, single replicate values)",[2]; M = -10.522,6.738
same,decrease in potency vs wild type,[3]; S107C,approximately 100 fold
same,ΔEmax values (each mutant value - WT average),[3]; S107C mutant minus WT average,21.9095
same,"pEC50 values, Mean","[3]; S107C mutant, each line an independent experiment, 3 replicates",7.847 and 7.402
same,"Emax values, Mean","[3]; S107C mutant, β-PEA = 100, each line an independent experiment, 3 replicates",108.613 and 99.8921
same,Span ± SEM (Emax normalized to β-PEA),"[3]; S107C, n=2",112.19
same,pEC50 ± SEM,"[3]; S107C, n=2",6.61 ± 0.80
same,EC50,"[3]; S107C, n=2, read-out: EC50",248 nM
same,"pEC50 values, Mean","[4]; F195T mutant, Figure 5B, each row one independent experiment (3 replicates)",8.682 and 8.281
same,"Emax values, Mean","[4]; F195T mutant, Figure 5B, β-PEA = 100, each row one independent experiment (3 replicates)",106.681 and 96.1093
same,Span ± SEM (Emax normalized to β-PEA),"[4]; F195T, n=2",101.40 ± 5.29
same,pEC50 ± SEM,"[4]; F195T, n=2",7.68 ± 0.60
same,EC50,"[4]; F195T, n=2, read-out: EC50",20.9 nM
same,Emax values,[5]; Mean of fit per experiment,109.361 and 91.1412
same,Span ± SEM (Emax normalized to β-PEA),[5]; n=2,100.25 ± 9.11
same,pEC50 ± SEM,[5]; n=2,8.78 ± 0.06
same,EC50,"[5]; n=2, read-out: EC50",1.64 nM
same,Emax,[5]; relative to β-PEA,100.3%
